Laboratory results reported in patent US20100279997A1, “ANALGESIC THAT BINDS FILAMIN A” (priority 2009, published 2010).

Molecular target: T1, μ opiate receptor (MOR) (Rattus norvegicus, UniProt P33535)
T1 construct: from tissue; host or cells: striatal tissue (membrane preparation)
Assay: MOR agonist activity, [35S]GTPγS binding assay using striatal membranes
Format: biochemical
Details: for [35S]GTPγS binding to Gαo, FLNA-binding compound as agonist 0.1 μM: 0.1 μM compound; for [35S]GTPγS binding to Gαo, FLNA-binding compound as agonist 0.1 μM / [35S]GTPγS binding to Gαo, FLNA-binding compound as agonist 1 μM: striatal membranes; for [35S]GTPγS binding to Gαo, FLNA-binding compound as agonist 1 μM + BFNA: 1 μM compound + 1 μM β-funaltrexamine; for [35S]GTPγS binding to Gαo, FLNA-binding compound as agonist 1 μM: 1 μM compound; for % DAMGO + BFNA: relative to DAMGO + BFNA; for % DAMGO (0.1 μM) / % DAMGO (1 μM): relative to DAMGO
Description: To assess the μ opiate receptor (MOR) agonist activity of positive compounds from the FLNA screening, compounds were tested in a [^35S]GTPγS binding assay using striatal membranes.
Striatal tissue was homogenized in 10 volumes of ice cold 25 mM HEPES buffer, pH 7.4, which contained 1 mM EGTA, 100 mM sucrose, 50 μg/ml leupeptin, 0.04 mM PMSF, 2 μg/ml soybean trypsin inhibitor and 0.2% 2-mercaptoethanol. The homogenates were centrifuged at 800×g for 5 minutes and the supernatants were centrifuged at 49,000×g for 20 minutes. The resulting pellets were suspended in 10 volume of reaction buffer, which contained 25 mM HEPES, pH 7.5, 100 mM NaCl, 50 μg/ml leupeptin, 2 μg/ml soybean trypsin inhibitor, 0.04 mM PMSF and 0.02% […].
The resultant striatal membrane preparation (200 μg) was admixed and maintained (incubated) at 30° C. for 5 minutes in reaction buffer as above that additionally contained 1 mM MgCl2 and 0.5 nM [^35S]GTPγS (0.1 μCi/assay, PerkinElmer Life and Analytical Sciences) in a total volume of 250 μl and continued for 5 minutes in the absence or presence of 0.1-10 μM of an assayed compound of interest. The reaction was terminated by dilution with 750 μl of ice-cold reaction buffer that contained 20 mM MgCl2 and 1 mM EGTA and immediate centrifugation at 16,000×g for 5 minutes.
The resulting pellet was solubilized by sonicating for 10 seconds in 0.5 ml of immunoprecipitation buffer containing 0.5% digitonin, 0.2% sodium cholate and 0.5% NP-40. Normal rabbit serum (1 μl) was added to 1 ml of lysate and incubated at 25° C. for 30 minutes. Nonspecific immune complexes were removed by incubation with 25 μl of protein A/G-conjugated agarose beads at 25° C. for 30 minutes followed by centrifugation at 5,000×g at 4° C. for 5 minutes. The supernatant was divided and separately incubated at 25° C. for 30 minutes with antibodies raised against Gao proteins (1:1,000 dilutions).
The immunocomplexes so formed were collected by incubation at 25° C. for 30 minutes with 40 μl of agarose-conjugated protein A/G beads and centrifugation at 5,000×g at 4° C. for 5 minutes. The pellet was washed and suspended in buffer containing 50 mM Tris-HCl, pH 8.0, and 1% NP-40. The radioactivity in the suspension was determined by liquid scintillation spectrometry. […] DAMGO (H-Tyr-D-Ala-Gly-N-MePhe-Gly-OH; 1 or 10 μM) was used as a positive control.

T1 sequence (P33535 whole entry): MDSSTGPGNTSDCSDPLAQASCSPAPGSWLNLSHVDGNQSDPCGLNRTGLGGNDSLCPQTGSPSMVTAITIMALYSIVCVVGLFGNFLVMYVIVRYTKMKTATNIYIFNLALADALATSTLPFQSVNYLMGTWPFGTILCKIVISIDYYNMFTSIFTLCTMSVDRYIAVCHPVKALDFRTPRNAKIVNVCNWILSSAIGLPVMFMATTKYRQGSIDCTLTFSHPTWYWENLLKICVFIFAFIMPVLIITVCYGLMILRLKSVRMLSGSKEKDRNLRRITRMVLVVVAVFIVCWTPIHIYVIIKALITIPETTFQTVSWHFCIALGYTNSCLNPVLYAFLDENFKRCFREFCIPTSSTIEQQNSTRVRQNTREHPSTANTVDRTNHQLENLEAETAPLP

| SMILES | [35S]GTPγS binding to Gαo, FLNA-binding compound as agonist 0.1 μM [%] | [35S]GTPγS binding to Gαo, FLNA-binding compound as agonist 1 μM + BFNA [%] | [35S]GTPγS binding to Gαo, FLNA-binding compound as agonist 1 μM [%] | % DAMGO + BFNA [%] | % DAMGO (0.1 μM) [%] | % DAMGO (1 μM) [%] |
| --- | --- | --- | --- | --- | --- | --- |
| CC1CCC(C(C)C)C(OCC(O)CN2CCCC2=O)C1 (stereo not drawn) [Compound A0035] | 120.6 | 88.6 | 158.8 | – | – | – |
| CC1CCC(C(C)C)C(OCC(O)CN2CCCCC2=O)C1 (stereo not drawn) [Compound A0036] | 144.1 | 63.2 | 167.5 | – | – | – |
| CC1CCC(C(C)C)C(OCC(O)CN(C(C)C)C(C)C)C1 (stereo not drawn) [Compound A0037] | 177.9 | 104.6 | 236.2 | 141.5 | 90.7 | 85.6 |
| CC1CCC(C(C)C)C(OCC(O)Cn2cccc2)C1 (stereo not drawn) [Compound A0038] | 176.7 | 107.0 | 234.5 | – | – | – |
| CC1CCC(C(C)C)C(OCC(O)CN2CCc3ccccc3C2)C1 (stereo not drawn) [Compound A0040] | 46.1 | 16.7 | 149.0 | – | – | – |
| CC1CN(CC(O)COc2cccc(N(C)C)c2)CC(C)O1 (stereo not drawn) [Compound A0042] | 147.5 | 89.5 | 233.1 | – | – | – |
| CC1CN(CC(O)COc2ccccc2Br)CC(C)O1 (stereo not drawn) [Compound A0043] | 183.3 | 89.1 | 223.8 | – | – | – |
| CC(=O)c1ccc(OCC(O)CN2CC(C)OC(C)C2)cc1 (stereo not drawn) [Compound A0044] | 176.2 | 134.7 | 209.1 | – | – | – |
| CC1CN(CC(O)COc2ccc(Br)c(Cl)c2)CC(C)O1 (stereo not drawn) [Compound A0045] | 143.9 | 99.2 | 274.2 | – | – | – |
| CC1CN(CC(O)COc2cc(F)cc(F)c2)CC(C)O1 (stereo not drawn) [Compound A0046] | 257.5 | 140.0 | 354.1 | 189.4 | 131.2 | 128.3 |
| CC1CN(CC(O)COc2ccc(Cl)cc2)CC(C)O1 (stereo not drawn) [Compound A0047] | 233.0 | 116.5 | 255.0 | – | – | – |
| COc1ccc(OCC(O)CN2CC(C)OC(C)C2)cc1 (stereo not drawn) [Compound A0048] | 233.7 | 167.2 | 302.9 | – | – | – |
| CN(C)c1cccc(OCC(O)CN2CCc3ccccc3C2)c1 (stereo not drawn) [Compound A0050] | 151.0 | 81.0 | 189.3 | – | – | – |
| CC1CN(CC(O)COc2cccc(C(F)(F)F)c2)CC(C)O1 (stereo not drawn) [Compound A0051] | 290.4 | 211.6 | 386.6 | – | – | – |
| COc1ccc(OCC(O)CN2CCc3ccccc3C2)cc1 (stereo not drawn) [Compound A0053] | 78.5 | 15.1 | 118.2 | – | – | – |
| OC(COc1cccc(C(F)(F)F)c1)CN1CCc2ccccc2C1 (stereo not drawn) [Compound A0054] | 74.9 | 114.1 | 159.2 | – | – | – |
| OC(COc1cccc(F)c1)CN1CCc2ccccc2C1 (stereo not drawn) [Compound A0055] | 89.8 | 33.5 | 195.2 | – | – | – |
| CC1CCC(C(C)C)C(OCC(O)CN2CCC(=O)C(C)C2)C1 (stereo not drawn) [Compound A0056] | 115.6 | 17.4 | 129.6 | – | – | – |
| OC(COc1ccc(Br)c(F)c1)CN1CCCCC1 (stereo not drawn) [Compound A0058] | 70.7 | 59.9 | 244.3 | – | – | – |
| OC(COc1ccc(Br)c(F)c1)CN1CCSCC1 (stereo not drawn) [Compound A0059] | 99.2 | 85.7 | 129.9 | – | – | – |
| CC1CCC(C(C)C)C(OCC(O)CN2CCC(=O)CC2)C1 (stereo not drawn) [Compound A0060] | 99.7 | 14.3 | 158.2 | – | – | – |
| COc1c2c(cc3c1OCO3)CCN(CC(O)COC1CC(C)CCC1C(C)C)C2 (stereo not drawn) [Compound A0061] | 110.3 | 10.7 | 197.1 | – | – | – |
| CC1CCC(C(C)C)C(OCC(O)CN2CCCc3ccccc32)C1 (stereo not drawn) [Compound A0068] | 73.9 | 98.1 | 110.4 | – | – | – |
| COc1ccc(OCC(O)CN2CCOc3ccccc32)cc1 (stereo not drawn) [Compound A0076] | 79.8 | 41.2 | 172.6 | 119.4 | 46.4 | 78.6 |
| COc1ccc(OCC(O)Cn2ccc3ccccc32)cc1 (stereo not drawn) [Compound A0077] | 300.1 | 103.5 | 334.7 | 470.5 | 170.5 | 132.3 |
| CC1CCC(C(C)C)C(OCC(O)Cn2ccc3ccccc32)C1 (stereo not drawn) [Compound A0078] | 250.5 | 147.8 | 289.9 | – | – | – |
